Test results reported in PMC5392334, “Discovery and characterization of a novel irreversible EGFR mutants selective and potent kinase inhibitor CHMFL-EGFR-26 with a distinct binding mode” (Oncotarget, 2017).

What was measured:
[1] = target: T1, MINK (Homo sapiens, UniProt Q8N4C8); experiment: KinomeScan; type: binding; settings: read-out: % control
T1 construct: purchased DiscoveRx KINOMEscan

[2] = target: T2, GRK2 (Homo sapiens, UniProt P25098); experiment: KinomeScan; type: binding; settings: read-out: % control
T2 construct: purchased DiscoveRx KINOMEscan

[3] = target: T3, WNK3 (Homo sapiens, UniProt Q9BYP7); experiment: KinomeScan; type: binding; settings: read-out: % control
T3 construct: purchased DiscoveRx KINOMEscan

[4] = target: T4, MKNK2 (Homo sapiens, UniProt Q9HBH9); experiment: KinomeScan; type: binding; settings: read-out: % control
T4 construct: purchased DiscoveRx KINOMEscan

[5] = target: T5, NIM1 (Homo sapiens, UniProt Q8IY84); experiment: KinomeScan; type: binding; settings: read-out: % control
T5 construct: purchased DiscoveRx KINOMEscan

[6] = target: T6, KIT-autoinhibited (Homo sapiens, UniProt P10721); experiment: KinomeScan; type: binding; settings: read-out: % control
T6 construct: purchased DiscoveRx KINOMEscan

[7] = target: T7, FLT3(D835Y) (Homo sapiens, UniProt P36888, D835Y); experiment: KinomeScan; type: binding; settings: read-out: % control
T7 construct: purchased DiscoveRx KINOMEscan

[8] = target: T8, NIK (Homo sapiens, UniProt Q99558); experiment: KinomeScan; type: binding; settings: read-out: % control
T8 construct: purchased DiscoveRx KINOMEscan

[9] = target: T9, JAK1(JH2domain-pseudokinase) (Homo sapiens, UniProt P23458); experiment: KinomeScan; type: binding; settings: read-out: % control
T9 construct: JAK1(JH2domain-pseudokinase); purchased DiscoveRx KINOMEscan

[10] = target: T10, SRPK2 (Homo sapiens, UniProt P78362); experiment: KinomeScan; type: binding; settings: read-out: % control
T10 construct: purchased DiscoveRx KINOMEscan

[11] = target: T11, HIPK4 (Homo sapiens, UniProt Q8NE63); experiment: KinomeScan; type: binding; settings: read-out: % control
T11 construct: purchased DiscoveRx KINOMEscan

[12] = target: T12, ERBB2 (Homo sapiens, UniProt P04626); experiment: KinomeScan; type: binding; settings: read-out: % control
T12 construct: purchased DiscoveRx KINOMEscan

[13] = target: T13, YES (Homo sapiens, UniProt P07947); experiment: KinomeScan; type: binding; settings: read-out: % control
T13 construct: purchased DiscoveRx KINOMEscan

[14] = target: T14, YANK2 (Homo sapiens, UniProt Q9NY57); experiment: KinomeScan; type: binding; settings: read-out: % control
T14 construct: purchased DiscoveRx KINOMEscan

[15] = target: T15, CAMKK1 (Homo sapiens, UniProt Q8N5S9); experiment: KinomeScan; type: binding; settings: read-out: % control
T15 construct: purchased DiscoveRx KINOMEscan

[16] = target: T16, p38-alpha (Homo sapiens, UniProt Q16539); experiment: KinomeScan; type: binding; settings: read-out: % control
T16 construct: purchased DiscoveRx KINOMEscan

[17] = target: T17, MUSK (Homo sapiens, UniProt O15146); experiment: KinomeScan; type: binding; settings: read-out: % control
T17 construct: purchased DiscoveRx KINOMEscan

[18] = target: T18, BTK (Homo sapiens, UniProt Q06187); experiment: KinomeScan; type: binding; settings: read-out: % control
T18 construct: purchased Invitrogen (SelectScreen service)

[19] = target: T19, FGFR2 (Homo sapiens, UniProt P21802); experiment: KinomeScan; type: binding; settings: read-out: % control
T19 construct: purchased DiscoveRx KINOMEscan

[20] = target: T20, PRKCI (Homo sapiens, UniProt P41743); experiment: KinomeScan; type: binding; settings: read-out: % control
T20 construct: purchased DiscoveRx KINOMEscan

[21] = target: T21, KIT(D816H) (Homo sapiens, UniProt P10721, D816H); experiment: KinomeScan; type: binding; settings: read-out: % control
T21 construct: purchased DiscoveRx KINOMEscan

[22] = target: T22, MELK (Homo sapiens, UniProt Q14680); experiment: KinomeScan; type: binding; settings: read-out: % control
T22 construct: purchased DiscoveRx KINOMEscan

[23] = target: T23, PKMYT1 (Homo sapiens, UniProt Q99640); experiment: KinomeScan; type: binding; settings: read-out: % control
T23 construct: purchased DiscoveRx KINOMEscan

[24] = target: T24, PRKD1 (Homo sapiens, UniProt Q15139); experiment: KinomeScan; type: binding; settings: read-out: % control
T24 construct: purchased DiscoveRx KINOMEscan

[25] = target: T25, p38-delta (Homo sapiens, UniProt O15264); experiment: KinomeScan; type: binding; settings: read-out: % control
T25 construct: purchased DiscoveRx KINOMEscan

[26] = target: T26, NEK3 (Homo sapiens, UniProt P51956); experiment: KinomeScan; type: binding; settings: read-out: % control
T26 construct: purchased DiscoveRx KINOMEscan

[27] = target: T27, MAK (Homo sapiens, UniProt P20794); experiment: KinomeScan; type: binding; settings: read-out: % control
T27 construct: purchased DiscoveRx KINOMEscan

[28] = target: T28, AURKC (Homo sapiens, UniProt Q9UQB9); experiment: KinomeScan; type: binding; settings: read-out: % control
T28 construct: purchased DiscoveRx KINOMEscan

[29] = target: T29, DMPK (Homo sapiens, UniProt Q09013); experiment: KinomeScan; type: binding; settings: read-out: % control
T29 construct: purchased DiscoveRx KINOMEscan

[30] = target: T30, MST3 (Homo sapiens, UniProt Q9Y6E0); experiment: KinomeScan; type: binding; settings: read-out: % control
T30 construct: purchased DiscoveRx KINOMEscan

[31] = target: T31, FLT3-autoinhibited (Homo sapiens, UniProt P36888); experiment: KinomeScan; type: binding; settings: read-out: % control
T31 construct: purchased DiscoveRx KINOMEscan

[32] = target: T32, PIP5K1A (Homo sapiens, UniProt Q99755); experiment: KinomeScan; type: binding; settings: read-out: % control
T32 construct: purchased DiscoveRx KINOMEscan

[33] = target: T33, ABL1(M351T)-phosphorylated (Homo sapiens, UniProt P00519, M351T); experiment: KinomeScan; type: binding; settings: read-out: % control
T33 construct: purchased DiscoveRx KINOMEscan

[34] = target: T34, AURKA (Homo sapiens, UniProt O14965); experiment: KinomeScan; type: binding; settings: read-out: % control
T34 construct: purchased DiscoveRx KINOMEscan

[35] = system: p70S6K and eIF4E phosphorylations in H3255 cells; experiment: Signaling pathway examination (immunoblotting); type: cell-based, human; settings: 30 nM, 4 hours
Text: (§1) We next examined the effects of CHMFL-EGFR-26 on EGFR mediated signaling pathways in NSCLC cell lines with different EGFR mutants. […] As expected, in the EGFR wt expressing NCSCL cell lines A549 and H1355, only autophosphorylation of EGFR was affected and none of the downstream mediators was inhibited.
(§2) Cells were then collected and lysed. Phospho-EGF Receptor, Phospho-EGF Receptor (Tyr1068), Stat3, Phospho-Stat3 (Tyr705), AKT, Phospho-AKT (Ser473), Phospho-AKT (Thr308), p44/42 MAPK (Erk1/2), Phospho-p44/42 MAPK (Erk1/2) (Thr202/ Tyr204), p70 S6 Kinase, Phospho-p70 S6 Kinase (Thr389), eIF4E, Phospho-eIF4E (Ser209), 4E-BP1, Phospho-4E-BP1 (Thr37/46) antibody (Cell Signaling Technology) were used for immunoblotting.

[36] = system: autophosphorylation of EGFR Y1068 in H1975 cell line; experiment: Signaling pathway examination (immunoblotting); type: cell-based, human; settings: 10 nM, 4 hours
Text: as §1, §2

[37] = target: T35, MEK2 (Homo sapiens, UniProt P36507); experiment: KinomeScan; type: binding; settings: read-out: % control
T35 construct: purchased DiscoveRx KINOMEscan

[38] = target: T36, CSNK1A1L (Homo sapiens, UniProt Q8N752); experiment: KinomeScan; type: binding; settings: read-out: % control
T36 construct: purchased DiscoveRx KINOMEscan

T22 sequence (Q14680 whole entry): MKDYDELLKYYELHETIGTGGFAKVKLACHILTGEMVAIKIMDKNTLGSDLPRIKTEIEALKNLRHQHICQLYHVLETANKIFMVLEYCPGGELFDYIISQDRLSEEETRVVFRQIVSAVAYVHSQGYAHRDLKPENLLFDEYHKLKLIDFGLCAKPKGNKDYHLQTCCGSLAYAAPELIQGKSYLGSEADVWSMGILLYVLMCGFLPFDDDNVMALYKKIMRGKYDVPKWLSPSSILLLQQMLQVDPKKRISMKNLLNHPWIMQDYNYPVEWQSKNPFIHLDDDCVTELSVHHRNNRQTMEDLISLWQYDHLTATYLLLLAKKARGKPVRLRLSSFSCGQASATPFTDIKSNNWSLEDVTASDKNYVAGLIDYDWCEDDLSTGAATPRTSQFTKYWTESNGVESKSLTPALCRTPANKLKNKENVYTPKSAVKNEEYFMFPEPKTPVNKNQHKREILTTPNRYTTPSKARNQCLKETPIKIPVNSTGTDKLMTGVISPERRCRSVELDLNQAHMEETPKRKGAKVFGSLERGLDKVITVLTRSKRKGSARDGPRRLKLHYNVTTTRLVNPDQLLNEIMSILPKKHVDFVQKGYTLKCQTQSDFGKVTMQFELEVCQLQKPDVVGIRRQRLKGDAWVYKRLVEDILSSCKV
T26 sequence (P51956 whole entry): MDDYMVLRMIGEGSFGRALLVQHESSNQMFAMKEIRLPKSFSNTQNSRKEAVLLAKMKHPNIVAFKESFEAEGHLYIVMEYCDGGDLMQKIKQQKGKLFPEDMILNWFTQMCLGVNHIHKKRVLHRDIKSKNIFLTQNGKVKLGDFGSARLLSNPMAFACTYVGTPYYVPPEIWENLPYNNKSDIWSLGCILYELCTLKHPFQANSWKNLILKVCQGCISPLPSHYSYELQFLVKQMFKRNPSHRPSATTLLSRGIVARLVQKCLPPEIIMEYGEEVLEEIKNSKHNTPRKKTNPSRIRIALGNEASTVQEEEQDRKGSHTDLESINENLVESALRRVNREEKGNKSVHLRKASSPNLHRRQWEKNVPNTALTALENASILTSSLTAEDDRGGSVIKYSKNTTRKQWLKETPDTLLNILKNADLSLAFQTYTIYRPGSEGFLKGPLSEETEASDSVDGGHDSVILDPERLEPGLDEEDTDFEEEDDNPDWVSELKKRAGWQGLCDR
T16 sequence (Q16539 whole entry): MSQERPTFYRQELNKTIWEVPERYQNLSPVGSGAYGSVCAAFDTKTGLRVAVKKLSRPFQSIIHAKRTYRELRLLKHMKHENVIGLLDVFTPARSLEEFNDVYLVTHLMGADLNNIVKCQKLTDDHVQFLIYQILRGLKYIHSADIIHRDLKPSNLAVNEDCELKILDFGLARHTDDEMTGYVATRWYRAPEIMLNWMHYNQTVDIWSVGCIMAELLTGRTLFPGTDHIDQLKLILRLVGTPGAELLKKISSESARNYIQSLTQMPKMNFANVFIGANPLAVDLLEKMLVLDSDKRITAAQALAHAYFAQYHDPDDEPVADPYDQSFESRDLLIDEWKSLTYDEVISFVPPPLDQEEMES
T6 sequence (P10721 26-976): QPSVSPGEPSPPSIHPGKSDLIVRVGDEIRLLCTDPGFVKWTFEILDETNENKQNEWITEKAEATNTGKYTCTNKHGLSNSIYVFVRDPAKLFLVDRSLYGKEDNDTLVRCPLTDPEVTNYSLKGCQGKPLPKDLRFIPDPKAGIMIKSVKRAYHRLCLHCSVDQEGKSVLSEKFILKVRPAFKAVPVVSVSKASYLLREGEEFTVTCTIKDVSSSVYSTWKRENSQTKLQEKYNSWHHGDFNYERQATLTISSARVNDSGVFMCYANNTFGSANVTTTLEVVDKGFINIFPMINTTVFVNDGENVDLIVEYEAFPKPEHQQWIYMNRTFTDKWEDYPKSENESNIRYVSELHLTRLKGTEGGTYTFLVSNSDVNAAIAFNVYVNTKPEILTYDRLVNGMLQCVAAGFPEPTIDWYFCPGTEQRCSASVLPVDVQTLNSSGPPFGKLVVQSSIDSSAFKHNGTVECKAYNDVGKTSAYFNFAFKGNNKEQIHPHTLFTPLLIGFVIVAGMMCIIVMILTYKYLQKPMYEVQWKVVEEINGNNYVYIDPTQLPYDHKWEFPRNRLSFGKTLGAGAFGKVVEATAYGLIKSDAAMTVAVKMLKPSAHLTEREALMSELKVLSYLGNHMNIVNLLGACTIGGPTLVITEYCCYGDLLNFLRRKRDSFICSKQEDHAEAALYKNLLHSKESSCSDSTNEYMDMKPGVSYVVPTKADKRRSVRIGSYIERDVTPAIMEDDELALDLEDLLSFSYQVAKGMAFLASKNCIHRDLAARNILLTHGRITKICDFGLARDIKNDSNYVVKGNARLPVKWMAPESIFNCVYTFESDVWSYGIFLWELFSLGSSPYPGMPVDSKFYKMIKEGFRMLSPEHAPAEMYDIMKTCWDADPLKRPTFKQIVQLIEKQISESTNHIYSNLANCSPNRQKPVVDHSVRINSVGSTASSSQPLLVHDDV
T28 sequence (Q9UQB9 whole entry): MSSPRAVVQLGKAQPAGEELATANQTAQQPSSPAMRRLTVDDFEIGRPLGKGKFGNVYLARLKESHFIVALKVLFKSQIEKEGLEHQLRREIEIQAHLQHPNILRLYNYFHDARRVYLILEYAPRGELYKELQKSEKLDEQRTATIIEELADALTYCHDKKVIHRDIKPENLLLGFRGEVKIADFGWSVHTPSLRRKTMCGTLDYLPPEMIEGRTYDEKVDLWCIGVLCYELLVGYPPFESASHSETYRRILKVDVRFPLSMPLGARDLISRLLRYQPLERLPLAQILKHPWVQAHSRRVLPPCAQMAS
T3 sequence (Q9BYP7 whole entry): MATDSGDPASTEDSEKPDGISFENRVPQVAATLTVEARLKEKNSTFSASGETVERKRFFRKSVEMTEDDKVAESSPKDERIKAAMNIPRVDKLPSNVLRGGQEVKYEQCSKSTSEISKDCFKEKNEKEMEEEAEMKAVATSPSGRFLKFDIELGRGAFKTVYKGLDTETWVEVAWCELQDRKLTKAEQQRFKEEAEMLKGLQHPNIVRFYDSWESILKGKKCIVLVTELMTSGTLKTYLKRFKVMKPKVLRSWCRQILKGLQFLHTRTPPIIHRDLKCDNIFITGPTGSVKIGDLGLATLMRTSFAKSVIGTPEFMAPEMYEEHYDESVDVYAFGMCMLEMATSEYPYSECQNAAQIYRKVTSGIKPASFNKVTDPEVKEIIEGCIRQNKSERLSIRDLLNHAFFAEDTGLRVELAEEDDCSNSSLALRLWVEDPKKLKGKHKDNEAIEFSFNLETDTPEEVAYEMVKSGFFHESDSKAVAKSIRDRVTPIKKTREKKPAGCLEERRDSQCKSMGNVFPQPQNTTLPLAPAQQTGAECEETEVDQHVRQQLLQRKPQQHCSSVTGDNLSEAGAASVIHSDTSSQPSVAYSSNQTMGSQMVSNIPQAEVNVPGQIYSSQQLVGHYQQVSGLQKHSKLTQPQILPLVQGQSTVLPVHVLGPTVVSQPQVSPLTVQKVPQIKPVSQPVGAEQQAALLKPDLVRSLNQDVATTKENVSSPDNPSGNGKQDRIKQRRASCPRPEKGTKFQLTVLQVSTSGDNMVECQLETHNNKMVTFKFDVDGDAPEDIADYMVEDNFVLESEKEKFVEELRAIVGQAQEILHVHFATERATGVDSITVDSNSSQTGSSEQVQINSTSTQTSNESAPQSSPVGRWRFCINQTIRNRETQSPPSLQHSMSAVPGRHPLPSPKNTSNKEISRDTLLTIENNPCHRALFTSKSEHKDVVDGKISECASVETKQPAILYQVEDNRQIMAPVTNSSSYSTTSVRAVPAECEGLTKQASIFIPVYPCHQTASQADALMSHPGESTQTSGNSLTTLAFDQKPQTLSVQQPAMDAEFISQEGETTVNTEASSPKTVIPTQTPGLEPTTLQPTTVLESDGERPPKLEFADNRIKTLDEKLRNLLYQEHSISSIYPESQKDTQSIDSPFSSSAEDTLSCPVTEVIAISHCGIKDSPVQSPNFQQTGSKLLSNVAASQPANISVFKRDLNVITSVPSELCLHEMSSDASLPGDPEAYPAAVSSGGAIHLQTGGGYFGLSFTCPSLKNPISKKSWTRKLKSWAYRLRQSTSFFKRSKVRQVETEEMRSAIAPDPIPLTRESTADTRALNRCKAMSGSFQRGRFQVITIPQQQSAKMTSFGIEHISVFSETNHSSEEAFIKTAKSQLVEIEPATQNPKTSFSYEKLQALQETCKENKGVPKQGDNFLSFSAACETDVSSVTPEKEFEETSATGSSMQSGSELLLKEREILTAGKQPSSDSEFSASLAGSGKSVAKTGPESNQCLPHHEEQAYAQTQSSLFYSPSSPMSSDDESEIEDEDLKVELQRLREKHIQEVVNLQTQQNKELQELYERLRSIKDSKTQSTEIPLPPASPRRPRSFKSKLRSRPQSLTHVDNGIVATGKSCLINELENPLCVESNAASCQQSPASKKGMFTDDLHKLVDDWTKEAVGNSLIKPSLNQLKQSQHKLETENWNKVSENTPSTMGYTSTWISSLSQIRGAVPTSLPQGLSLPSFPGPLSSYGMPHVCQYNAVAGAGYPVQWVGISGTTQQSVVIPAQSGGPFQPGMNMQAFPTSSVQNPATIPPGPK
T21 sequence (P10721 26-976 D816H): as the sequence (P10721 26-976) above, with D791H counted along it
T14 sequence (Q9NY57 whole entry): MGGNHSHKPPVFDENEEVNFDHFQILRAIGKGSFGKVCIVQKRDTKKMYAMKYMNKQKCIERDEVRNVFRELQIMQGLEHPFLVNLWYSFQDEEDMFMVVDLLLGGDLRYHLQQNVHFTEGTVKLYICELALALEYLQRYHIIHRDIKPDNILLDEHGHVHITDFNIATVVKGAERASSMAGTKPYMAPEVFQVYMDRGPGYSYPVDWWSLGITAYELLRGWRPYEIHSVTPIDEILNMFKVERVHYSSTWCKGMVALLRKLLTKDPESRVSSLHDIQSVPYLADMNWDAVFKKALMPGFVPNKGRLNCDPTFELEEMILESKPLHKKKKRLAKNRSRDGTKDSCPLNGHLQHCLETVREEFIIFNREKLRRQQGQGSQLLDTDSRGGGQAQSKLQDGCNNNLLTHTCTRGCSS

With `C=CC(=O)N1CCC[C@@H](n2nc(-c3ccc(OCc4cccc(C)n4)c(Cl)c3)c3c(N)ncnc32)C1` [CHMFL-EGFR-26] the remaining binding at 1 µM [1] was 29%, the remaining binding at 1 µM [2] was 99% and the remaining binding at 1 µM [3] was 100%. The remaining binding at 1 µM [4] was 91%, the remaining binding at 1 µM [5] was 96% and the remaining binding at 1 µM [6] was 95%. For the same compound, the remaining binding at 1 µM [7] was 97%, the remaining binding at 1 µM [8] was 100% and the remaining binding at 1 µM [9] was 84%. The remaining binding at 1 µM [10] was 100%, the remaining binding at 1 µM [11] was 100% and the remaining binding at 1 µM [12] was 0%. The remaining binding at 1 µM [13] was 65%, the remaining binding at 1 µM [14] was 5.8% and the remaining binding at 1 µM [15] was 88%. For the same compound, the remaining binding at 1 µM [16] was 86%, the remaining binding at 1 µM [17] was 84% and the remaining binding at 1 µM [18] was 0.45%. It also gave a remaining binding at 1 µM [19] of 100%, a remaining binding at 1 µM [20] of 100% and a remaining binding at 1 µM [21] of 100%. It also gave a remaining binding at 1 µM [22] of 41%, a remaining binding at 1 µM [23] of 92% and a remaining binding at 1 µM [24] of 85%. The remaining binding at 1 µM [25] was 83%, the remaining binding at 1 µM [26] was 83% and the remaining binding at 1 µM [27] was 100%. The remaining binding at 1 µM [28] was 87%, the remaining binding at 1 µM [29] was 66% and the remaining binding at 1 µM [30] was 39%. It also gave a remaining binding at 1 µM [31] of 99%, a remaining binding at 1 µM [32] of 100% and a remaining binding at 1 µM [33] of 100%. The remaining binding at 1 µM [34] was 97%, the “mTOR-p70S6K and eIF4E phosphorylations” value [35] was “completely blocked” and the “autophosphorylation of EGFR Y1068” value [36] was “almost completely suppress”. It also gave a remaining binding at 1 µM [37] of 1.1% and a remaining binding at 1 µM [38] of 91%.
